The values below come from the RepoRT retention time repository.

A short description of the series: HILIC, Waters ACQUITY UPLC BEH Amide, 100 × 2.1 mm, 1.7 µm; A: water + 0.125% formic acid + 10 mM ammonium formate; B: 5% water + 95% acetonitrile + 0.125% formic acid + 10 mM ammonium formate; gradient (min/%B) 0/100 2/100 7.7/70 9.5/40 10.25/30 12.75/100 17/100. The following applies: stereoisomer not certain.
Turning to `Cc1cc(O)cc(=O)o1` [4-Hydroxy-6-methyl-2-pyrone], the LC retention time came to 1.47 min. As to `COc1cc2c(cc1OC)C13CCN4CC5=CCOC6CC(=O)N2C1C6C5CC43` (stereo not drawn) [Brucine], the LC retention time turned out to be 4.57 min. `CN(Cc1cnc2nc(N)nc(N)c2n1)c1ccc(C(=O)NC(CCC(=O)O)C(=O)O)cc1` (stereo not drawn) [Methotrexate]: the LC retention time is 7.67 min.

`CC(C)C(=O)O` [Isobutyric acid]: the LC retention time is 1.77 min. The same measure for `CCCC(=O)O` [Butanoic acid]: 10.2 min; for `NCC(=O)NCC(=O)NCC(=O)O` [Gly-Gly-Gly]: 9.18 min; for `NC(CCC(=O)NC(CS)C(=O)O)C(=O)O` (stereo not drawn) [gamma-Glutamyl-cysteine]: 8.98 min.

Regarding `CC(c1ncncc1F)C(O)(Cn1cncn1)c1ccc(F)cc1F` (stereo not drawn) [Voriconazole], the LC retention time was determined as 1.02 min. For `O=C(O)c1cc(O)ccc1O` [Gentisinic acid], the LC retention time was found to be 3.18 min. Next, `COc1ccc(-c2cc(=O)c3c(OC)c(OC)c(OC)c(OC)c3o2)cc1OC` [Nobiletin]: 1 min.

Consider `COCC1=C(C(=O)OC(C)OC(=O)OC(C)C)N2C(=O)C(NC(=O)C(=NOC)c3csc(N)n3)C2SC1` (stereo not drawn), for which the LC retention time turned out to be 1.12 min.

In the case of `CC(C)(C#N)c1cc(Cn2cncn2)cc(C(C)(C)C#N)c1` [Anastrozole], the LC retention time came out at 0.98 min.

On to `COc1cc(C=CC(=O)O)cc(OC)c1O` [Sinapic acid], for which the LC retention time is 1.41 min. Next, `Cc1[nH]c(=O)c(C#N)cc1-c1ccncc1` [Milrinone]: 1.6 min; `CCCCCC(=O)O` [Hexanoic acid]: 4.89 min; `NC(CCO)C(=O)O` (stereo not drawn) [Homoserine]: 8.29 min. Next, `CCOC(=O)c1ccc(OC(=O)CCCCCN=C(N)N)cc1` [Gabexate]: 3.45 min; `COc1ccc(C=CC(=O)Nc2ccccc2C(=O)O)cc1OC` [Tranilast]: 1.26 min. With `O=C(O)COCCN1CCN(C(c2ccccc2)c2ccc(Cl)cc2)CC1` (stereo not drawn) [Levocetirizine], the LC retention time was 2.9 min. Consider `Cc1ccc(NC(=O)c2ccc(CN3CCN(C)CC3)cc2)cc1Nc1nccc(-c2cccnc2)n1` [Imatinib], for which the LC retention time is 5.36 min. As to `CC(C)C(C)C=CC(C)C1CCC2C3=CC=C4CC(O)CCC4(C)C3CCC21C` (stereo not drawn) [Ergosterol], the LC retention time was 1.43 min.

As for `CC(C)OC(=O)CCCC=CCC1C(O)CC(O)C1CCC(O)CCc1ccccc1` (stereo not drawn) [Latanoprost], the LC retention time was determined as 1.06 min. Regarding `O=[N+]([O-])c1cccc2cn[nH]c12` [7-Nitroindazole], the LC retention time came to 1.03 min. The same measure for `COc1ccc2[nH]cc(CCO)c2c1` [5-Methoxytryptophol]: 1.18 min; for `Oc1ccc2c3c1OC1C(O)CCC4(O)C(C2)N(CC2CCC2)CCC314` (stereo not drawn) [Nalbuphine]: 5.25 min.

As to `CCOC(=O)C1=C(C)NC(C)=C(C(=O)OC)C1c1cccc([N+](=O)[O-])c1` (stereo not drawn) [Nitrendipine], the LC retention time was found to be 0.95 min. As for `CC(C)C1CCC(C(=O)NC(Cc2ccccc2)C(=O)O)CC1` (stereo not drawn) [Nateglinide], the LC retention time amounted to 1.3 min.

For the compound `CC(=O)OC1CC(C)(C)C(=C=CC(C)=CC=CC(C)=CC=CC=C(C)C=CC=C(C)C(=O)CC23OC2(C)CC(O)CC3(C)C)C(C)(O)C1` (stereo not drawn) [Fucoxanthin], the LC retention time was found to be 1.07 min.

With `CC(=O)Nc1ccc(CC(=O)O)cc1` [Actrarit], the LC retention time worked out at 1.58 min. Next, `CN1C(=O)CN=C(c2ccccc2)c2cc(Cl)ccc21` [Diazepam]: 1.1 min. Next, `NC(=O)C(N)Cc1c[nH]c2ccccc12` (stereo not drawn) [Tryptophanamide]: 5.91 min; `COC1C(O)C(CO)OC1n1cnc2c(=O)[nH]cnc21` (stereo not drawn) [2'-O-Methylinosine]: 4.06 min; `NC(=O)CS(=O)C(c1ccccc1)c1ccccc1` (stereo not drawn) [Modafinil]: 1.27 min. As to `COc1cc2ccc(=O)oc2cc1O` [Scopoletin], the LC retention time was determined as 1.16 min.

With `NC(N)=NCCCC(NC(=O)C(N)CCC(=O)O)C(=O)O` (stereo not drawn) [Glu-Arg], the LC retention time is 9.9 min. The same measure for `OCCN1CCN(CCCN2c3ccccc3Sc3ccc(C(F)(F)F)cc32)CC1` [Fluphenazine]: 2.74 min. Regarding `COC(=O)C1=COC(OC2OC(CO)C(O)C(O)C2O)C2C(CO)=CCC12` (stereo not drawn) [Geniposide], the LC retention time amounted to 4.53 min. Turning to `CC(=O)SCC(Cc1ccccc1)C(=O)NCC(=O)OCc1ccccc1` (stereo not drawn) [Racecadotril], the LC retention time was 0.95 min.

As to `CCCC(=O)OC(CC(=O)[O-])C[N+](C)(C)C` [(R)-Butyrylcarnitine], the LC retention time turned out to be 5.77 min.

In the case of `CCCc1nc(C(C)(C)O)c(C(=O)O)n1Cc1ccc(-c2ccccc2-c2nn[nH]n2)cc1` [Olmesartan], the LC retention time was determined as 4.76 min. As to `O=S(=O)(O)CCNC(CO)(CO)CO` [TES], the LC retention time stood at 7.7 min. The same measure for `O=C1CC2(CCCC2)CC(=O)N1CCNCC1COc2ccccc2O1` (stereo not drawn) [Binospirone]: 1.8 min; for `O=P(O)(O)Oc1ccccc1` [Phenylphosphoric acid]: 7.05 min; for `CC(C)=CCNc1ncnc2c1ncn2C1OC(CO)C(O)C1O` (stereo not drawn) [N6-Isopentenyladenosine]: 1.48 min. The same measure for `CCC1C(=O)OCC1Cc1cncn1C` (stereo not drawn) [Pilocarpine]: 2.23 min.

On to `CCCCCC(=O)OC(CC(=O)[O-])C[N+](C)(C)C` [Hexanoyl-L-carnitine], for which the LC retention time is 5.09 min. The same measure for `NCCc1cnc[nH]1` [Histamine]: 8.29 min; for `Oc1ccc2c3c1OC1c4[nH]c5ccccc5c4CC4(O)C(C2)N(CC2CC2)CCC314` (stereo not drawn) [Naltrindole]: 4.45 min. Next, `COC1C(O)C(CO)OC1n1cc(C)c(=O)[nH]c1=O` (stereo not drawn) [2'-O-Methyl-5-methyluridine]: 1.75 min; `Nc1ncnc2c1ncn2C1CC(O)C(COP(=O)(O)O)O1` (stereo not drawn) [2'-Deoxyadenosine-5'-monophosphate]: 8.63 min. As for `COc1cccc(C(=O)O)c1N` [2-Amino-3-methoxybenzoic acid], the LC retention time amounted to 1.27 min. The same measure for `O=c1c(O)c(-c2ccc(O)cc2)oc2cc(O)cc(O)c12` [Kaempferol]: 1.4 min. The same measure for `CC(C)CC(N)C(=O)NC(CCCN=C(N)N)C(=O)O` (stereo not drawn) [Leu-Arg]: 8.86 min. Regarding `COc1ccc(-c2coc3cc(O)ccc3c2=O)cc1` [Formononetine], the LC retention time turned out to be 1.18 min.

Regarding `Nc1c2c(nc3ccccc13)CCCC2` [Tacrine], the LC retention time is 3.86 min. Next, `CC(C)C(N)C(=O)OCCOCn1cnc2c(=O)[nH]c(N)nc21` (stereo not drawn) [Valaciclovir]: 6.83 min; `CSc1nc2cc(Oc3cccc(Cl)c3Cl)c(Cl)cc2[nH]1` [Triclabendazole]: 1.01 min. Next, `COc1ccnc(CS(=O)c2nc3ccc(OC(F)F)cc3[nH]2)c1OC` (stereo not drawn) [Pantoprazole]: 1.21 min.
